Test results reported in PubChem BioAssay (NCI).
Where “and” joins values, the source holds several entries; their conditions need not be identical. Equal entries are not always repeated.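 The compound was tested at five concentrations on cells cultured in 96-well plates, with a 48-hour exposure period. GI50 = concentration required for 50% inhibition of growth. TGI denotes the concentration required for complete inhibition of growth.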

Tests used:
Assay in all cases: DTP human tumour cell line panel, 48 h
[1] = tested on: 786-0 renal
[2] = tested on: A498 renal
[3] = tested on: ACHN renal
[4] = tested on: HOP-92 NSCLC
[5] = tested on: MALME-3M melanoma
[6] = tested on: OVCAR-3 ovarian
[7] = tested on: OVCAR-4 ovarian
[8] = tested on: PC-3 prostate
[9] = tested on: RXF 393 renal
[10] = tested on: UACC-62 melanoma

Row | SMILES | GI50 [1] | TGI [1] | GI50 [2] | TGI [2] | GI50 [3] | TGI [3] | GI50 [4] | TGI [4] | GI50 [5] | TGI [5] | GI50 [6] | TGI [6] | GI50 [7] | TGI [7] | GI50 [8] | TGI [8] | GI50 [9] | TGI [9] | GI50 [10] | TGI [10]
1 | CC(=O)Oc1ccc(C2OC(c3ccc4ccccc4c3OC(C)=O)=NN2C(C)=O)c(OC(C)=O)c1 (stereo unspecified) | 0.479 µM | > 77.2 µM | 1.73 µM | 17.5 µM | 0.264 µM | > 100 µM | 0.252 µM | > 29.5 µM | 0.407 µM | 5.12 µM | 0.354 µM | 26.1 µM | 0.291 µM | > 75.9 µM | 0.448 µM | > 59.6 µM | 0.432 µM | 16.3 µM | 331 nM | 9.04 µM
2 | COC(=O)C1C(C(=O)O)C2(c3ccccc3)C(=O)C1(c1ccccc1)C(c1ccc(OC)cc1)=C2c1ccc(OC)cc1 (stereo unspecified) | 18.6 µM | 40.4 µM | 23.2 µM | 46.2 µM | 36.6 µM | > 100 µM | 4.87 µM | 28.4 µM | 29.8 µM | 75.7 µM | 17.3 µM | 41.2 µM | 19.7 µM | 55.2 µM | 13 µM | 31.3 µM | 16.1 µM | 34.8 µM | 18800 nM | 35.2 µM
3 | COc1cc2c(Nc3ccc(-c4ccc(N)cc4)cc3)ncnc2c(OC)c1OC | 3.72 µM | > 100 µM | 15.1 µM | 56 µM | 1.76 µM | > 100 µM | 18.3 µM | > 100 µM | 22.4 µM | > 92.2 µM | 6.43 µM | > 59.3 µM | 6.01 µM | > 100 µM | 5.46 µM | > 89.1 µM | 24.9 µM | > 95.9 µM | 522 nM | > 35.1 µM
4 | CC(C)c1cnc(-c2cc(Cl)ccc2F)cc1Nc1ccncc1C(=O)NC(CO)CO | 14.1 µM | 37.1 µM | 2.28 µM | 19.7 µM | 11.1 µM | 29 µM | 1.33 µM | 35.4 µM | 17.2 µM | 34.4 µM | 14.3 µM | 32.8 µM | 13.7 µM | 66.3 µM | 13.8 µM | 32.6 µM | 10.3 µM | 27 µM | 15100 nM | 29 µM
5 | CCCCCCCCCCCCC(O)C1CCC(C(O)CCCCC(O)CCCCCC2CC(CC(C)=O)C(=O)O2)O1 (stereo unspecified) | 3.91 µM | 19.7 µM | 5.64 µM | 20.6 µM | – | 26.1 µM | 3.38 µM | 9.29 µM and 12.5 µM | – | 16.5 µM | 1.37 µM | 2.65 µM and 7.59 µM | – | 19.1 µM | – | 4.24 µM | 5.33 µM | 21.4 µM | 1380 nM | 3.66 µM and 16.3 µM
6 | COc1cccc2nc(Nc3cccc(NC(=O)c4ccc(N5CCN(C)CC5)c(C(F)(F)F)c4)c3)ccc12 | 0.923 µM | 1.78 µM | 1.8 µM | 6.46 µM | 1.53 µM | 4.57 µM | 0.854 µM | 4.03 µM | 0.816 µM | 1.62 µM | 1.21 µM | 3.07 µM | 1.43 µM | 6.67 µM | 1.26 µM | 4.51 µM | 0.802 µM | 2.96 µM | 1060 nM | 2.28 µM
7 | Cc1cc(O)ccc1C1(c2ccc(O)cc2C)OC(=O)c2ccccc21 | 16.8 µM | 34 µM | 17.7 µM | 33.3 µM | 16 µM | 31.8 µM | 15.4 µM | 29.7 µM | 17.9 µM | 37.9 µM | 16.4 µM | 30.1 µM | 16.4 µM | 30.8 µM | 18 µM | 35.6 µM | 18.5 µM | 33.9 µM | 18000 nM | 35.9 µM
8 | CO/N=C(/C)COc1ccc2c(c1)oc(=O)c1cc(OC)ccc12 | > 100 µM | > 100 µM | > 100 µM | > 100 µM | 75 µM | > 100 µM | > 100 µM | > 100 µM | > 100 µM | > 100 µM | > 100 µM | > 100 µM | 47.1 µM | > 100 µM | > 100 µM | > 100 µM | > 100 µM | > 100 µM | > 100000 nM | > 100 µM
9 | c1cc[n+](Cc2c3ccccc3cc3c2ccc2ccccc23)cc1 | 4.83 µM | 26.1 µM | 14.4 µM | 40.9 µM | > 100 µM | > 100 µM | 1.56 µM | 6.97 µM | 1.56 µM | 3.91 µM | 2.6 µM | 11.4 µM | 3.57 µM | 14.3 µM | 2.8 µM | 14.4 µM | 8.61 µM | 47.5 µM | 1920 nM | 3.93 µM
10 | COc1ccc(OC(=O)N2C/C(=C\c3ccccc3)C(=O)/C(=C/c3ccccc3)C2)cc1 | – | 7.96 µM | – | 10.6 µM | – | 14.4 µM | – | 40.1 µM | – | 27.8 µM | – | 13.1 µM | – | 23.5 µM | – | 11.2 µM | – | 8.71 µM | – | 5.35 µM
11 | COc1ccc(OC)c(C2=C(c3cn(C)c4ccccc34)C(=O)NC2=O)c1 | > 25 µM | > 25 µM | > 15.6 µM | > 25 µM | > 25 µM | > 25 µM | > 25 µM | > 25 µM | > 25 µM | > 25 µM | > 25 µM | > 25 µM | > 25 µM | > 25 µM | > 25 µM | > 25 µM | > 25 µM | > 25 µM | > 25000 nM | > 25 µM
12 | CCCCCCCCCCCCCCCC(=O)NS(=O)(=O)OC[C@H]1O[C@@H](n2cnc3c(N)ncnc32)[C@H](O)[C@@H]1O | < 0.0491 µM | – | < 0.03 µM | < 0.048 µM | – | 1.64 µM | < 0.024 µM | – | 0.69 µM | 2.22 µM | – | 0.124 µM | 0.0392 µM | 0.255 µM | – | < 0.0166 µM | < 0.0161 µM | < 0.0284 µM | 215 nM | 0.599 µM
